The term melting point denotes the temperature of the solid-liquid transition.

Where only a bound is given, the exact number is not on record here.

The compound `O=C(/C=C/c1cccc(S(=O)(=O)N2CCN(Cc3ccc4c(c3)OCO4)CC2)c1)NO` showed a melting point of 172 °C.
To `O=P(O)(O)Cc1cc(Cl)c(Oc2ccc(O)c(Cc3ccc(F)cc3)c2)c(Cl)c1` belongs 207 to 210 °C; to `CCSCc1cccc(-c2nc(=O)c3ccccc3s2)n1`, 142 to 144 °C.
`CC(C)(C)Sc1c(CC(C)(C)C(=O)O)n(Cc2ccc(Cl)cc2)c2ccc(OCc3cccc(Cl)n3)cc12` had a melting point of 206 to 207 °C.
With `COc1ccc(S(=O)(=O)N(COCC[Si](C)(C)C)c2ccccc2-c2cc(F)ccc2C(C)=O)cc1` the figure was 94 to 95 °C; with `Cc1cc(F)ccc1-c1nc(OCCCS(C)(=O)=O)nc2c1ccc(=O)n2-c1c(F)cccc1F`, 160 to 162 °C; with `O=S(=O)(Br)c1cccc2cccnc12`, 142 to 144 °C.
As to `CC(C)S(=O)(=O)c1ccc2c(c1)nc(CC(C)(C)C)n2CC1(O)CCOCC1`, the melting point turned out to be 189 °C.
Turning to `COC(=O)c1nc(-c2ccc(Cl)c(OC)c2F)cc(NC(C)=O)c1OCc1ccccc1`, the melting point lay in the range of 115 to 120 °C.
Consider `CCN1CCN(CC)c2cc([N+](=O)[O-])ccc2C1=O`, for which the melting point was in the range of 79 to 80 °C.
With `FC(F)(F)c1ccc(-c2ccc(Cl)nn2)cc1` the figure was 186 to 188 °C; with `CCCc1c(OCC(O)COc2ccc3c(=O)cc(C=CC(=O)OCC)oc3c2CCC)ccc(C(C)=O)c1O` (stereo not drawn), 125 to 127 °C.
With `COc1ccc2cc(-c3cccnc3)ccc2n1` the figure was 89 to 91 °C.
With `CC1(C)CC(=O)Nc2cc3nc(-c4cc5ccccc5[nH]4)[nH]c3cc21` the figure was 264 to 267 °C; with `O=C(O)CCCc1ccc2c(NC(=O)CC3CCCCC3)c(Cl)ccc2n1`, 216 to 220 °C.
Regarding `COc1cccc2c(CCN(CC3CC3)C3COc4c(F)ccc(C(N)=O)c4C3)coc12` (stereo not drawn), the melting point was in the range of 130 to 138 °C.
To `CC1=CC(=C(C#N)C#N)C=C(C)N1` belongs 158 to 159 °C; to `COc1cc(N)ccc1-c1sc(C)nc1C`, 112 to 115 °C; to `CC(=O)NCCCc1ccc(OC2CCc3cc(Cl)ccc32)cc1` (stereo not drawn), 111 to 112 °C.
For the compound `COC(=O)c1cn(-c2cc(C(=O)Nc3cc(C(C)(C)C)cc(NS(C)(=O)=O)c3OC)cc(C)c2C)nn1`, the melting point worked out at 199 °C.
To `O=C1N(Cc2ncccn2)c2ccccc2C12COc1cc3c(cc12)OCCO3` (stereo not drawn) belongs 210 to 212 °C.
To `CCOc1ccc2c(C)c(CCCl)c(=O)oc2c1OCC` belongs 89 to 90 °C; to `Nc1ncc(Br)cc1C(=O)O`, 272 °C; to `COc1nnc2c(=O)c3ccccc3ccn12`, 149 to 150 °C.
On to `CCOC(=O)c1ccc(NC(=O)C=Cc2ccc(Cl)cc2)cc1`, for which the melting point fell in the range of 203 to 204 °C.
As to `O=C(Cn1c(-c2ccc(Cl)cc2)nc2cccnc21)NC1CCCCC1`, the melting point lay within 240 to 241 °C.
To `C#CCOc1ccc(CCNC(=O)C(=O)c2ccc(-c3ccc(Cl)cc3)cc2)cc1OC` belongs 122 to 124 °C; to `COc1ccc(CCCC(CC(=O)O)CC(=O)O)cc1`, 71 to 73 °C; to `CC(=O)N(CC(C)C)C1NC(=O)N(c2ccc(C)cc2)C(=O)N1`, 159 to 160 °C.
For the compound `Cc1oc2ccccc2c(=O)c1O`, the melting point lay in the range of 179 to 180 °C.
To `C[C@@H]1S[C@@H](C(=O)Nc2ccc(CC3SC(=O)NC3=O)cc2)Cc2cc3c(cc2C1=O)OCO3` (stereo partly drawn) belongs 139 to 144 °C.
With `CS(=O)(=O)CS(C)(=O)=O` the figure was 146 °C.
With `Oc1ccc2ccc(OCc3ccccn3)cc2c1` the figure was 190 to 193 °C; with `CC(C)(CCOc1ccc(Cl)cc1)C(=O)Cn1cncn1`, 188 to 190 °C.
In turn, `C=Cc1cc(Cl)cc2[nH]c(=O)c(-c3ccccc3)c(O)c12` displayed a melting point of 240 to 244 °C.
Compound `CS(=O)(=O)c1ccc(-c2cn(-c3ccccc3)nc2C(=O)O)cc1` came in with a melting point of 207 to 208 °C.
To `CCOC(=O)C1=C(N2CCCCC2)N=C(C)C(C(=O)OCC)C1c1ccccc1C#N` (stereo not drawn) belongs 103 °C.
With `N#CCCSN1C(=O)CCC1=O` the figure was 110 to 112 °C; with `CCOC(=O)Cc1c(C)[nH]c2cc(F)c(OC)c(F)c12`, 92.1 to 92.7 °C; with `C=C(C)COc1ccc(Br)cc1CN(CC)c1ccc(C(=O)NS(=O)(=O)c2c(C)noc2C)nn1`, 120 °C.
To `CC(C)CN1C(=O)[C@@H](CC(=O)O)N[C@H](c2ccccc2Cl)c2cc(Cl)ccc21` belongs 184 to 188 °C.
`COc1ccc2c(c1)C(C)(C)[C@H]1CCCN(C(C)=O)[C@H]1C2` (relative stereo) yielded a melting point of 81 to 85 °C.
With `CCN1C2=C(C(=O)Nc3ccccc3F)C(=O)CCN2c2ccccc21` the figure was 142 to 143 °C; with `CN1CCN(S(=O)(=O)c2cccc(NC(=O)c3cnn4c(C(F)(F)F)cc(-c5ccc(Cl)c(Cl)c5)nc34)c2)CC1`, 181 °C; with `CC(C)(C)OC(=O)NCC(CNC(=O)OC(C)(C)C)OS(C)(=O)=O`, 127 °C.
To `CC1(C)Cn2c(nc3c(N)nc4ccccc4c32)CN1S(C)(=O)=O` belongs 227 to 228 °C; to `CCN(CC)CCOc1ccc(-n2c(-c3ccccc3)cc(=O)c3ccccc32)cc1`, 115 to 117 °C; to `CCCON1C(C)(C)CC(NC(=O)C2=C(c3ccccc3)C(c3ccccc3)OC2=O)CC1(C)C` (stereo not drawn), 79 to 85 °C.
With `COc1ccc(N2CCN(Cc3n[nH]c4c(F)c(F)ccc34)CC2)cc1` the figure was 195 to 197 °C; with `COc1ccc2c(c1OC)CCC(NC(=O)CCCCC(=O)NCCc1ccccc1)C2` (stereo not drawn), 191 to 193 °C.
`CC(C)(c1ccc2c(=O)c3ccccc3sc2c1)[N+](=O)[O-]`: the melting point was 131 to 133 °C.
With `COCCON=C(C1=C(O)C(=O)N(c2ccc(C)nn2)C1c1ccc(OC(F)(F)F)cc1)c1ccc(C(C)C)cc1` (stereo not drawn) the figure was 115 to 118 °C; with `C#CCNC(=O)N1c2ccccc2-c2noc3c2C1CCC3` (stereo not drawn), 220 °C; with `Cc1nnc2ccc(-c3cccc(C(F)(F)F)c3)nn12`, 193 to 194 °C.
Regarding `COC(=O)CCn1c(=O)n2n(c1=O)C(C(=O)OC)C=CC2` (stereo not drawn), the melting point lay in the range of 91 to 92 °C.
To `O=c1[nH]c(=O)n(CCCCBr)c2cc([N+](=O)[O-])ccc12` belongs 202 to 203 °C.
With `NC(=O)c1c(NC(=O)C2CC2)sc2c(O)c(Br)ccc12` the figure was 235 to 236 °C; with `ClCc1ccc(-c2ccccc2)cn1`, 73 °C.
With `CC1(C)CCC(C)(C)c2cc3c(cc21)OCC3(C)c1cc(C=C(Br)Br)cs1` (stereo not drawn) the figure was 124 °C.
`Cn1ncsc1=NC(=S)Nc1ccccc1` gave a melting point of 174 to 175 °C.
With `COc1ccc(C2=NN(CCCCBr)C(=O)[C@H]3CC=CC[C@@H]23)cc1OC` (relative stereo) the figure was 102 to 103 °C; with `CNC(=O)c1ccc2c(c1C)OC(c1ccccc1)(c1ccccc1)O2`, 178 to 180 °C.
To `CCC(CC)C(NS(=O)(=O)c1ccc(Cl)cc1)c1ccnn1-c1ccccc1` (stereo not drawn) belongs 135 to 136 °C; to `N=C(Nc1ccccc1-c1ccccc1)N1CCOCC1`, 153 to 154 °C; to `CN(C)CCCC(=O)N1CCOc2cc3ncc(C#N)c(Nc4ccc(F)c(Cl)c4)c3cc21`, 165 °C.
To `CSCc1cnc2c(C)cccc2c1O` belongs 226 to 228 °C.
In the case of `OC1CCCCC1n1c(Br)nc2cc(Cl)c(Cl)cc21` (stereo not drawn), the melting point was in the range of 186 to 188 °C.
With `CC(C)c1nc(COC(=O)N[C@H](C(=O)N[C@@H](Cc2ccccc2)[C@@H](O)C[C@H](Cc2ccccc2)NC(=O)OCc2cncs2)C(C)C)cs1` the figure was 172 to 174 °C.
To `CC(=O)Nc1c(C(=O)c2ccccc2)[nH]c2ccc(F)cc12` belongs 80 to 82 °C.
For the compound `CCCOc1ccccc1-c1ccc2c(c1)C=C(C(=O)Nc1ccc(CN(C)C3CCOCC3)cc1)CCS2(=O)=O`, the melting point was in the range of 190 to 192 °C.
With `CCC(O)c1cc(C(=O)OC)c(NC(C)=O)cc1C(F)(F)F` (stereo not drawn) the figure was 120 to 122 °C; with `CCCOc1ccc(-c2ccc3c(c2)C=C(C(=O)Nc2ccc(C(O)c4ccccn4)cc2)CCS3(=O)=O)cc1` (stereo not drawn), 208 to 210 °C.
Take `NC(=O)COc1ccc(OCCn2ccnc2)cc1`: the melting point lay in the range of 123 to 124 °C.
To `CCOC(=O)C(C=O)Cc1cnc(C)c(C)c1` (stereo not drawn) belongs 148 to 149 °C; to `CCS(=O)(=O)NC(C(=O)NCCc1ccc(OC)c(OC)c1)c1ccc(Cl)cc1` (stereo not drawn), 136 to 138 °C.
With `COC(=O)C1Cc2c([nH]c3ccccc23)C(c2ccc3c(c2)OCO3)N1C(=O)CCl` (stereo not drawn) the figure was 207 to 208 °C.
With `Cc1nc(-c2cc3c(Oc4ccc(Cl)cc4)cncc3s2)no1`, the melting point is 120 to 121 °C.
Turning to `COc1ccc2c(Cl)cc(-c3ccc(Cl)cc3)nc2c1`, the melting point is 153 to 155 °C.
With `FC(F)(F)c1cc(Cl)c(-n2ncc(-c3nc(C(F)(F)F)c[nH]3)n2)c(Cl)c1` the figure was 262 to 264 °C.
With `CC(C)(C)c1ccc(N(Cc2cccc3ccccc23)c2ccccc2)cc1` the figure was 135 to 137 °C; with `Cc1c(C#N)sc2nc(-c3ccncc3)nc(N3CCOCC3)c12`, more than 250 °C; with `O=C(O)c1ccc(Oc2nn(Cc3ccccc3)c3ccccc23)o1`, 162 to 165 °C.
For `O=S(Cc1ccccc1)c1ncc(Cl)cn1` (stereo not drawn), the melting point stood at 92 °C.
With `CC(=O)NCCC(C)c1ccc(-c2ccc(Cl)cc2)cc1` (stereo not drawn) the figure was 118 to 120 °C.
Turning to `CC(C(=O)Nc1ccc2c(c1)CC(=O)N2)N1CCC(Cc2ccccc2)CC1` (stereo not drawn), the melting point was in the range of 153 to 155 °C.
To `COc1ccc2[nH]c(/C=C/C=O)cc2c1` belongs 145 to 147 °C.
To `CC1(Br)C(Br)=C(Br)C(Br)=C1Br` belongs 60 to 61 °C; to `CC(C)N1CCN(C(=O)COC2c3ccccc3C(=O)N2c2ccc3ccc(Cl)nc3n2)CC1` (stereo not drawn), 186 °C.

The values above are taken from a melting point compilation (Tetko et al.; mined from patent text by program, amines drawn as free bases though some values may be those of a salt).
